{"source": "patent US20220057378A1", "about": "“MICROBIAL MICROFLUIDIC BIOSENSOR” (priority 2015, published 2022)", "assay_type_in_all_cases": "cell-based", "key": {"E. coli MG1655/As3": {"system": "E. coli MG1655/As3", "assay": "on-chip time-lapse induction of promoter construct (GFP, gill chip)", "text": "The on-chip time-lapse induction response of each promoter construct in this table can be seen in FIG. 36. In each figure panel, the moment of toxin introduction is represented as a step in the red trace."}, "E. coli MG1655/As1": {"system": "E. coli MG1655/As1", "assay": "on-chip time-lapse induction of promoter construct (GFP, gill chip)", "quoted_text": "(§3) For on-chip induction experiments, strains were loaded into the device and grown in M9 minimal medium with 0.4% glucose and 50 μg/ml spectinomycin (for plasmid maintenance) for 2 days in the absence of toxin. Cells were imaged under 4× brightfield and GFP fluorescence filters on an Olympus IX-81 microscope every 2 min for 6 h under these non-inducing conditions to generate a fluorescence baseline. The toxin was then introduced to induce GFP expression and the cells were imaged every 2 min for 6 h.\n(§4) To determine the response to toxin induction, the raw fluorescence images before and after induction were compared. The image stacks were analyzed using a custom ImageJ script to measure the average GFP signal over time for each cell trap. Any linear trend in the uninduced fluorescence data due to cell growth was subtracted from the data. In this manner, the dynamic signal-to-noise ratio (SNR) was calculated as: (current fluorescence−mean uninduced fluorescence)/(standard deviation of uninduced fluorescence).\n(§5) This microfluidic platform was then used to measure the response of several toxin responsive promoter constructs identified from the literature and synthesized by Transcriptic. […] Note that SNR values greater than 2 indicate a significant response."}, "As7 GFP construct": {"system": "As7 GFP construct", "assay": "arsenic detection with the GFP construct in a microfluidic device", "method": "For comparison, the arsenic concentration used for testing the GFP construct in a microfluidic device was 130 nM, or 0.13 μM. Thus, replacing GFP with Lux promises to greatly increase the sensitivity of the biosensor.\nThe arsenic sensor construct As7 was modified to replace the gfp gene with the luxCDABE operon, and relative induction (fluorescence or luminescence) of the two constructs was tested side-by-side using a Tecan Infinite M200 Pro plate reader (see FIG. 38). […] In contrast, the GFP construct was sensitive to arsenic only above a concentration of 26 nM. For comparison, we were able to detect an arsenic concentration of 130 nM using the GFP construct in a microfluidic device. Thus, replacing GFP with Lux promises to greatly increase the sensitivity of the biosensor."}, "[1]": {"system": "E. coli MG1655 containing pRS18", "assay": "on-chip step-induction of arsenic-sensing plasmid pRS18 (GFP)", "conditions": "pRS18 in E. coli MG1655, M9 + 0.4% glucose", "text": "Induction of pRS18, an arsenic-sensing plasmid, was first tested in the microfluidic device. A recombinant strain of E. coli MG1655 containing pRS18 was vacuum loaded into the microfluidic device, grown to confluence, and step-induced with sodium ortho-arsenite (Na3AsO3) in M9 minimal medium supplemented with 0.4% glucose. Images were collected using a Nikon Ti microscope with 4× objective magnification. Step induction was executed using the gravity-driven “Dial-AWave” automated flow control system to mix two medium sources in a defined ratio. The cells were sequentially exposed to arsenic concentrations of 0 μM, 0.1 μM, 0.5 μM, and 1 μM in 6-h windows, allowing time for the cells to respond to each concentration increase. […] We believe that the rise in GFP expression prior to the induction step is due to a small leak of inducer into the medium stream. Average fluorescence within the trapping regions of the images as well as arsenic concentration is plotted over time in FIG. 47C."}, "E. coli MG1655/As7": {"system": "E. coli MG1655/As7", "assay": "8-strain chip induction (fluorescence induction ratio)", "conditions": "toxin at t=0, pure water at t=2 hours; arsenic 0.2 μM", "text": "(§1) An overview of the sensor can be seen in FIG. 39. In order to acquire the large amount of data required to successfully train the classifier, five replicates of the fully self-contained device prototype were built, in which the microfluidic devices are mounted and imaged using custom-designed optics as shown in some embodiments herein (Milestone 6.9). The majority of the data for this project was acquired using a novel microfluidic device capable of housing eight different bacterial strains that receive media from a shared source. […] The design was expanded to house 18 strains and we have begun taking data with this new chip to provide larger datasets to the classifier. A detailed CAD drawing of this device can be seen in FIG. 56. The 18 cell trapping regions are vacuum-loaded from 18 downstream fluidic ports. Long, serpentine channels upstream of the trapping regions serve as fluidic buffer zones to prevent the cross-contamination of strains while loading. The toxin concentration is controlled dynamically by a peristaltic pump that mixes a water/toxin combination (representing the source water stream) with a concentrated medium stock.\n(§2) In each panel, the time series data for the “on-target” responding strain is plotted in bold."}, "E. coli MG1655/Cr11": {"system": "E. coli MG1655/Cr11", "assay": "8-strain chip induction (fluorescence induction ratio)", "conditions": "toxin at t=0, pure water at t=2 hours; chromium(VI) 0.5 μM", "text": "as §1, §2"}, "E. coli MG1655/Co7": {"system": "E. coli MG1655/Co7", "assay": "8-strain chip induction (fluorescence induction ratio)", "conditions": "toxin at t=0, pure water at t=2 hours; chromium(VI) 0.5 μM", "text": "as §1, §2"}, "E. coli MG1655/Cu1": {"system": "E. coli MG1655/Cu1", "assay": "on-chip time-lapse induction of promoter construct (GFP, gill chip)", "quoted_text": "as §3, §4, §5"}, "E. coli LABEC01/Pb2": {"system": "E. coli LABEC01/Pb2", "assay": "on-chip time-lapse induction of promoter construct (GFP, gill chip)", "quoted_text": "as §3, §4, §5"}, "[2]": {"conditions": "0.13 μM arsenic, 6 h induction, SNR > 2 = significant response"}}, "note": "Values joined by “and” are separate entries in the source; they are usually repeats but may differ in a detail not shown here. Equal values may be shown once.", "data": [{"molecule": "[As]", "note": "[Arsenic]", "values": [{"measurement": "SNR after 6 h", "setting": "E. coli MG1655/As3; [2]", "result": 33}, {"measurement": "Concentration Sensed in Microfluidic Device", "setting": "E. coli MG1655/As3; arsR/parsR from E. coli genome, synthetic RBS", "result": 0.13, "unit": "µM"}, {"measurement": "SNR after 6 h", "setting": "E. coli MG1655/As1; [2]", "result": 20}, {"measurement": "Concentration Sensed in Microfluidic Device", "setting": "E. coli MG1655/As1; arsR/parsR from E. coli plasmid, native RBS", "result": 0.13, "unit": "µM"}, {"measurement": "arsenic concentration detected, GFP construct in microfluidic device", "setting": "As7 GFP construct", "result": 130, "unit": "nM"}, {"measurement": "arsenic concentration detected on-chip (GFP)", "setting": "[1]", "result": "0.1 µM and 0.13 µM"}, {"measurement": "GFP response of strain As7", "setting": "E. coli MG1655/As7", "result": "sensitively responding"}]}, {"molecule": "[Cr+6]", "note": "[Chromium(VI)]", "values": [{"measurement": "GFP response of strain Cr11", "setting": "E. coli MG1655/Cr11", "result": "responding"}, {"measurement": "GFP response of strain Co7", "setting": "E. coli MG1655/Co7", "result": "responding"}]}, {"molecule": "[Cu]", "note": "[Copper]", "values": [{"measurement": "SNR after 6 h", "setting": "E. coli MG1655/Cu1; 25 μM copper, 6 h induction, SNR > 2 = significant response", "result": 65}, {"measurement": "Concentration Sensed in Microfluidic Device", "setting": "E. coli MG1655/Cu1; cueR/pcopA from E. coli genome, native RBS", "result": 25, "unit": "µM"}]}, {"molecule": "[Pb]", "note": "[Lead]", "values": [{"measurement": "SNR after 6 h", "setting": "E. coli LABEC01/Pb2; 7 μM lead, 6 h induction, SNR > 2 = significant response", "result": 18}, {"measurement": "Concentration Sensed in Microfluidic Device", "setting": "E. coli LABEC01/Pb2; pbrR/ppbrR from C. metallidurans plasmid, synthetic RBS", "result": 7, "unit": "µM"}]}]}
